Experimental data: article PMC7794376 (Nature Communications, 2021)
“And” between values parts separate entries of the source, which are not always exact repeats. Identical values can stand only once. Like-named read-outs stand apart in the source and are kept apart here.

How the values were obtained:
[1] = biological target: MtbCoaBC (Mycobacterium tuberculosis, UniProt P9WNZ1); assay: biochemical; type: biochemical; conditions: for activity at 0.015625 µM / activity at 0.03125 µM / activity at 0.0625 µM / activity at 0.25 µM / activity at 0.5 µM: relative to average DMSO CT; for Activity R1 / Activity R3: slope of absorbance at 360 vs time (s); for inhibition, IC50 MtbCoaBC 1b / remaining activity relative to control, IC50 MtbCoaBC 1b: three replicates, column head and unit not shown
[2] = biological target: human CoaB (HCoaB) (Homo sapiens, UniProt Q9HAB8); assay: EnzChek pyrophosphate assay, HCoaB; type: biochemical; conditions: for Activity: slope of absorbance at 360 nm vs time (s)
[3] = inhibitor concentration 1 (log 0)
[4] = inhibitor concentration 2 (log 0.30103)
[5] = 3.125 uM 1b, relative to average DMSO CT, replicates R1-R3
[6] = 6.25 uM 1b, relative to average DMSO CT, replicates R1-R3
[7] = 25 uM 1b, relative to average DMSO CT, replicates R1-R3

Sequence of human CoaB (HCoaB) (Q9HAB8 whole entry): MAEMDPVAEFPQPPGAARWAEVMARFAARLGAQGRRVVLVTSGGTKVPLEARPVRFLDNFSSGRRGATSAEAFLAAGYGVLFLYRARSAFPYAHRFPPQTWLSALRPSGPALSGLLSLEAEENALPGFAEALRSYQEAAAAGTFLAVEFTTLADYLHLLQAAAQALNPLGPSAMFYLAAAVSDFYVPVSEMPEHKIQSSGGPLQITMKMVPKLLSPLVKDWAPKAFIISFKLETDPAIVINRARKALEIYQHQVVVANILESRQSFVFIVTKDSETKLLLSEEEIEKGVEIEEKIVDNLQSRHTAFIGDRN
Sequence of MtbCoaBC (P9WNZ1 whole entry): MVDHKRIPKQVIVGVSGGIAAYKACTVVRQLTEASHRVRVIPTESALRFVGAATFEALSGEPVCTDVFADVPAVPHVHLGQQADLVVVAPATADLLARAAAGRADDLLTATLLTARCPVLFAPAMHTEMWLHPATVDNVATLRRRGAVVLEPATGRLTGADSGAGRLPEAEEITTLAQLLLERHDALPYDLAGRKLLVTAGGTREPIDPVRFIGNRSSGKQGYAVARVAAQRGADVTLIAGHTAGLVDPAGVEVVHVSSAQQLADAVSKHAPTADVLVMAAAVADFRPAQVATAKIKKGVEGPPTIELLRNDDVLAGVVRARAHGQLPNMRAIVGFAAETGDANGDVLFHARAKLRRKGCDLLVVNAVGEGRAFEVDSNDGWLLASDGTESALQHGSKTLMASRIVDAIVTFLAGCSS

`O=C(c1ccc(O)cc1)c1ccc(O)c(O)c1O` [compound 1b] was tested, and the inhibition at 0.015625 µM ([1]; 0.015625 uM 1b, replicate R1, read-out: Inhibition % R1) was 2.55%, the activity at 0.015625 µM ([1]; 0.015625 uM 1b, replicate R1, read-out: Activity % R1) was 97.4% and the “Activity R1” value ([1]; 0.015625 uM 1b, replicate R1) was 0.0001869. It also gave an inhibition at 0.015625 µM ([1]; 0.015625 uM 1b, replicate R2, read-out: Inhibition % R2) of 2.2%, an activity at 0.015625 µM ([1]; 0.015625 uM 1b, replicate R2, read-out: Activity % R2) of 97.8% and an inhibition at 0.015625 µM ([1]; 0.015625 uM 1b, replicate R3, read-out: Inhibition % R3) of 1.31%. For the same compound, the activity at 0.015625 µM ([1]; 0.015625 uM 1b, replicate R3, read-out: Activity % R3) was 98.7%, the “Activity R3” value ([1]; 0.015625 uM 1b, replicate R3) was 0.0001893 and the inhibition at 0.03125 µM ([1]; 0.03125 uM 1b, replicate R1, read-out: Inhibition % R1) was 6.71%. For the same compound, the activity at 0.03125 µM ([1]; 0.03125 uM 1b, replicate R1, read-out: Activity % R1) was 93.3%, the “Activity R1” value ([1]; 0.03125 uM 1b, replicate R1) was 0.0001789 and the inhibition at 0.03125 µM ([1]; 0.03125 uM 1b, replicate R2, read-out: Inhibition % R2) was 2.99%. For the same compound, the activity at 0.03125 µM ([1]; 0.03125 uM 1b, replicate R2, read-out: Activity % R2) was 97%, the inhibition at 0.03125 µM ([1]; 0.03125 uM 1b, replicate R3, read-out: Inhibition % R3) was 1.51% and the activity at 0.03125 µM ([1]; 0.03125 uM 1b, replicate R3, read-out: Activity % R3) was 98.5%. For the same compound, the “Activity R3” value ([1]; 0.03125 uM 1b, replicate R3) was 0.0001889, the inhibition at 0.0625 µM ([1]; 0.0625 uM 1b, replicate R1, read-out: Inhibition % R1) was 9.45% and the activity at 0.0625 µM ([1]; 0.0625 uM 1b, replicate R1, read-out: Activity % R1) was 90.5%. The “Activity R1” value ([1]; 0.0625 uM 1b, replicate R1) was 0.0001736, the inhibition at 0.0625 µM ([1]; 0.0625 uM 1b, replicate R2, read-out: Inhibition % R2) was 5.43% and the activity at 0.0625 µM ([1]; 0.0625 uM 1b, replicate R2, read-out: Activity % R2) was 94.6%. The inhibition at 0.0625 µM ([1]; 0.0625 uM 1b, replicate R3, read-out: Inhibition % R3) was 12.9%, the activity at 0.0625 µM ([1]; 0.0625 uM 1b, replicate R3, read-out: Activity % R3) was 87.1% and the “Activity R3” value ([1]; 0.0625 uM 1b, replicate R3) was 0.0001671. The inhibition at 0.25 µM ([1]; 0.25 uM 1b, replicate R1, read-out: Inhibition % R1) was 34.5%, the activity at 0.25 µM ([1]; 0.25 uM 1b, replicate R1, read-out: Activity % R1) was 65.5% and the “Activity R1” value ([1]; 0.25 uM 1b, replicate R1) was 0.0001256. For the same compound, the inhibition at 0.25 µM ([1]; 0.25 uM 1b, replicate R2, read-out: Inhibition % R2) was 38.6%, the activity at 0.25 µM ([1]; 0.25 uM 1b, replicate R2, read-out: Activity % R2) was 61.4% and the inhibition at 0.25 µM ([1]; 0.25 uM 1b, replicate R3, read-out: Inhibition % R3) was 42.2%. The activity at 0.25 µM ([1]; 0.25 uM 1b, replicate R3, read-out: Activity % R3) was 57.8%, the “Activity R3” value ([1]; 0.25 uM 1b, replicate R3) was 0.0001108 and the inhibition at 0.5 µM ([1]; 0.5 uM 1b, replicate R1, read-out: Inhibition % R1) was 89.6%. The activity at 0.5 µM ([1]; 0.5 uM 1b, replicate R1, read-out: Activity % R1) was 10.4%, the “Activity R1” value ([1]; 0.5 uM 1b, replicate R1) was 0.000019995 and the inhibition at 0.5 µM ([1]; 0.5 uM 1b, replicate R2, read-out: Inhibition % R2) was 80.6%. For the same compound, the activity at 0.5 µM ([1]; 0.5 uM 1b, replicate R2, read-out: Activity % R2) was 19.4%, the inhibition at 0.5 µM ([1]; 0.5 uM 1b, replicate R3, read-out: Inhibition % R3) was 86.3% and the activity at 0.5 µM ([1]; 0.5 uM 1b, replicate R3, read-out: Activity % R3) was 13.7%. For the same compound, the “Activity R3” value ([1]; 0.5 uM 1b, replicate R3) was 0.000026339, the “inhibition, IC50 MtbCoaBC 1b” value [1, 3] was 96.33 and 92.35 and 100.00 and the “remaining activity relative to control, IC50 MtbCoaBC 1b” value [1, 3] was -0.335 and 3.671 and 7.649. For the same compound, the “inhibition, IC50 MtbCoaBC 1b” value [1, 4] was 100.00, the “remaining activity relative to control, IC50 MtbCoaBC 1b” value [1, 4] was -0.361 and -1.371 and -2.001 and the IC50 ([1]; read-out: IC50 EnzChek MtbCoaBC) was 0.28 ± 0.05 µM. For the same compound, the IC50 ([2]; 1 µM enzyme, average of three independent experiments ± SD) was 122 ± 22 µM, the Activity % [2, 5] was 96.65% and 97.82% and the activity at 3.125 µM [2, 5] was 97.6%. For the same compound, the Inhibition % ([2]; 3.125 uM 1b, replicates R1-R3) was 2.18% and 2.43%, the inhibition at 3.125 µM ([2]; 3.125 uM 1b, replicates R1-R3) was 3.35% and the Activity ([2]; 3.125 uM 1b, replicates R1-R3) was 0.0001351 and 0.0001338 and 0.0001354. The Activity % [2, 6] was 95.26% and 96.32%, the activity at 6.25 µM [2, 6] was 97.7% and the Inhibition % ([2]; 6.25 uM 1b, replicates R1-R3) was 4.74% and 3.68% and 2.34%. The Activity ([2]; 6.25 uM 1b, replicates R1-R3) was 0.0001352 and 0.0001319 and 0.0001333, the Activity % [2, 7] was 82.72% and 82.77% and the activity at 25 µM [2, 7] was 81.5%. For the same compound, the Inhibition % ([2]; 25 uM 1b, replicates R1-R3) was 17.23% and 18.55%.
